Like-named read-outs stand apart in the source and are kept apart here.
How the values were obtained:
[1] = target: T1, PRMT5-MEP50 enzyme complex (Homo sapiens, UniProt O14744); assay: PRMT5-MEP50 Enzyme Methylation Assay (Version A); assay type: biochemical
T1 construct: Full-length (FL)-PRMT5-MEP50 enzyme complex (recombinant proteins from baculovirus-transfected Sf21 cells: FL-PRMT5; MW=73837 kDa and FL-MEP50; MW=38614); made in house; host or cells: baculovirus-transfected Sf21 cells
Experimental: PRMT5-MEP50 Enzyme Methylation Assay (Version A)
PRMT5-MEP50 biochemical assay is a direct measurement of the methylation activity of the enzyme complex on a short peptide substrate derived from the N-terminus of H4 histone. Methylation experiment was performed with recombinant PRMT5-MEP50 protein complex. The assessment of inhibitory effect of small molecules was measured by the effectiveness of the compounds to inhibit this reaction (EC50).
In this assay, the potency (EC50) of each compound was determined from a twenty-point (1:2 serial dilution; top compound concentration of 100000 nM) titration curve using the following outlined procedure. To each well of a white ProxiPlus 384 well-plate, 100 nL of compound (1% DMSO in final assay volume of 10 μL) was dispensed, followed by the addition of 8 μL of 1× assay buffer (50 mM Bicine pH 8.0, 1 mM DTT, 0.004% Tween20, 0.01% BSA) containing 1.25 nM of Full-length (FL)-PRMT5-MEP50 enzyme complex (recombinant proteins from baculovirus-transfected Sf21 cells: FL-PRMT5; MW=[…] and FL-MEP50; MW=38614) and 1 μL of 150 μM S-(5′-Adenosyl)-L-Methionine Chloride (SAM). A plate was sealed and placed in a 37° C. humidified chamber for a 60 minutes pre-incubation with compound. Subsequently, each reaction was initiated by the addition of 1 μL 1× assay buffer containing 750 nM biotinylated H4R3 (MeI) peptide. The final reaction in each well of 10 μL consists of 1.0 nM PRMT5-MEP50, 75 nM biotinylated-peptide, and 15 μM SAM. Methylation reactions were allowed to proceed for 150 minutes in a sealed plate at 37° C. Reactions were immediately quenched by the addition of 1 μL of 5% formic acid. A plate was then frozen and shipped to SAMDI™ Tech Inc. to determine the percent conversion from H4R3 (MeI) to H4R3 (Me2). Dose-response curves were generated by plotting percent effect (% product conversion; Y-axis) vs. Log 10 compound concentrations (X-axis). EC50 values were determined by non-linear regression according to models for either sigmoidal (4 parameters) or biphasic (7 parameters) dose-response curves.

PRMT5 = target: T2, PRMT5 (Homo sapiens, UniProt O14744); assay: PRMT5 Cell Target Engagement (TE) Assay; assay type: cell-based; details: MCF-7 cells, treated for 3 days, symmetric dimethylation of arginine (SDMA) by high content imaging
T2 construct: seeded with 4000 MCF-7 cells in 30 μl media; endogenous in cells; host or cells: MCF-7 cells
How it was run: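 Readout is single-cell nuclear symmetric-dimethylarginine immunofluorescence (Alexa488), normalized to DMSO-treated cells. Compounds were applied to MCF-7 cells for 3 days at 37 °C, top concentration 10000 nM in 1:3 steps over ten points; curves fitted with 4-parameter robust fit.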

[2] = first of two EC50s: 7 parameters biphasic model, read-out: Enzyme Methylation Assay Version A (EC50_1)
[3] = second of two EC50s: 7 parameters biphasic model, read-out: Enzyme Methylation Assay Version A (EC50_2)
[4] = only one EC50 shown: 4 parameters single site sigmoidal model, 60 min pre-incubation with SAM, read-out: Enzyme Methylation Assay Version A (EC50)

T2 sequence (O14744 whole entry): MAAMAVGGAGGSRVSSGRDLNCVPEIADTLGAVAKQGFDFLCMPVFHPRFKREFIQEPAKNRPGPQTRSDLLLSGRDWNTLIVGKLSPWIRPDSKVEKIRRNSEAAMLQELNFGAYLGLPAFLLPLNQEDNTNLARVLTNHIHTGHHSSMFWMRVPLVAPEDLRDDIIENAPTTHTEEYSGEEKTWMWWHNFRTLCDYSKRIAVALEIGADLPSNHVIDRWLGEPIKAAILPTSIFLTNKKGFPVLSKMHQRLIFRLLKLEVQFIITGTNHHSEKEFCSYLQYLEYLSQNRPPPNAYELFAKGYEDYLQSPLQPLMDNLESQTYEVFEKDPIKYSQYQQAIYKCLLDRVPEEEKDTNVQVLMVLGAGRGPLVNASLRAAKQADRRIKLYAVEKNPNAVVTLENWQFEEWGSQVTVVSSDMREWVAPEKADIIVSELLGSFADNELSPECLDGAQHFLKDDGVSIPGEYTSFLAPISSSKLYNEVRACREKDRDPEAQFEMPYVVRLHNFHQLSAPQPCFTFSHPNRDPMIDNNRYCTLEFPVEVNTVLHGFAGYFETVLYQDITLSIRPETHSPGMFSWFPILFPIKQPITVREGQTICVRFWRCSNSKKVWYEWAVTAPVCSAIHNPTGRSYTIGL
T2 sequence (Q9BQA1 whole entry partner): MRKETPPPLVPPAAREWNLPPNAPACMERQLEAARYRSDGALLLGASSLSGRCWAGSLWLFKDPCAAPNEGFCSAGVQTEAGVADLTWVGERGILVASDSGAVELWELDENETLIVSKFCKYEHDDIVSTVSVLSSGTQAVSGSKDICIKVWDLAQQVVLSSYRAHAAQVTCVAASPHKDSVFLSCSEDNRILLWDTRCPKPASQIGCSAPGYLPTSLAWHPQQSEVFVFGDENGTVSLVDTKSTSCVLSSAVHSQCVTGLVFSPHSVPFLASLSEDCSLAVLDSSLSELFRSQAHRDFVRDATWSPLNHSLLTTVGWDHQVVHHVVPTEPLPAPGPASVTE
T1 sequence (O14744 whole entry): as the sequence (O14744 whole entry) above
T1 sequence (Q9BQA1 whole entry partner): as the sequence (Q9BQA1 whole entry partner) above

EC50 [1, 2] | EC50 [1, 3] | EC50 (PRMT5) | EC50 [1, 4] | Structure (SMILES)
 |  | 9800 nM | 507 nM | CC(=O)N1CCC(Nc2nccc(C(=O)N3CC[C@@H](N4CCc5ccccc5C4)[C@H](O)C3)c2F)CC1 [Example 19, 1-(4-((4-((3R,4R)-4-(3,4-dihydroisoquinolin-2(1H)-yl)-3-hydroxypiperidine-1-carbonyl)-3-fluoropyridin-2-yl)amino)piperidin-1-yl)ethan-1-one]
0.4 nM | 120 nM | 6.3 nM |  | CCOc1nc(Br)cn2cc(C(=O)N3CC[C@H](N4CCc5ccccc5C4)[C@@H](O)C3)nc12 [Example 51, (6-bromo-8-ethoxyimidazo[1,2-a]pyrazin-2-yl)((3S,4S)-4-(3,4-dihydroisoquinolin-2(1H)-yl)-3-hydroxypiperidin-1-yl)methanone]
~28 nM | > 10000 nM | > 10000 nM |  | O=C(c1ccnc(OC(F)F)c1)N1CC[C@H](N2CCc3ccccc3C2)[C@@H](O)C1 [Example 53, (2-(difluoromethoxy)pyridin-4-yl)((3S,4S)-4-(3,4-dihydroisoquinolin-2(1H)-yl)-3-hydroxypiperidin-1-yl)methanone]
 |  | 1.8 nM | 0.4 nM | Cc1nc(C)c(-c2cnc3nc(C(=O)N4CC[C@H](N5CCc6ccccc6C5)[C@@H](O)C4)cn3c2)s1 [Example 56, [(3S,4S)-4-(3,4-dihydroisoquinolin-2(1H)-yl)-3-hydroxypiperidin-1-yl][6-(2,4-dimethyl-1,3-thiazol-5-yl)imidazo[1,2-a]pyrimidin-2-yl]methanone]
 |  | 0.6 nM | 0.3 nM | CO[C@H](C)c1cc(C(C)C)cn2cc(C(=O)N3CC[C@H](N4CCc5ccccc5C4)[C@@H](O)C3)nc12 [Example 58, [(3S,4S)-4-(3,4-dihydroisoquinolin-2(1H)-yl)-3-hydroxypiperidin-1-yl]{8-[(1R)-1-methoxyethyl]-6-(propan-2-yl)imidazo[1,2-a]pyridin-2-yl}methanone]
 |  | 4.4 nM | 0.5 nM | CO[C@H](C)c1cc(C)cn2cc(C(=O)N3CC[C@H](N4CCc5ccccc5C4)[C@@H](O)C3)nc12 [Example 59, [(3S,4S)-4-(3,4-dihydroisoquinolin-2(1H)-yl)-3-hydroxypiperidin-1-yl]{8-[(1R)-1-methoxyethyl]-6-methylimidazo[1,2-a]pyridin-2-yl}methanone]
 |  | 21 nM | 3.6 nM | CC(C)N1CCNc2cc(C(=O)N3CC[C@H](N4CCc5ccccc5C4)[C@@H](O)C3)ccc2C1=O [Example 62, 8-((3S,4S)-4-(3,4-dihydroisoquinolin-2(1H)-yl)-3-hydroxypiperidine-1-carbonyl)-4-isopropyl-1,2,3,4-tetrahydro-5H-benzo[e][1,4]diazepin-5-one]
0.6 nM | 53 nM | 49 nM |  | Cc1nc2nc(C(=O)N3CC[C@H](N4CCc5ccccc5C4)[C@@H](O)C3)cn2cc1Br [Example 67, (6-bromo-7-methylimidazo[1,2-a]pyrimidin-2-yl)((3S,4S)-4-(3,4-dihydroisoquinolin-2(1H)-yl)-3-hydroxypiperidin-1-yl)methanone]
1.2 nM | 733 nM | 55 nM |  | COc1nc2nc(C(=O)N3CC[C@H](N4CCc5ccccc5C4)[C@@H](O)C3)cn2cc1Br [Example 69, (6-bromo-7-methoxyimidazo[1,2-a]pyrimidin-2-yl)((3S,4S)-4-(3,4-dihydroisoquinolin-2(1H)-yl)-3-hydroxypiperidin-1-yl)methanone]
~45 nM | 86100 nM | > 10000 nM |  | O=C(c1cn2cc(Br)c(O)nc2n1)N1CC[C@H](N2CCc3ccccc3C2)[C@@H](O)C1 [Example 70, (6-bromo-7-hydroxyimidazo[1,2-a]pyrimidin-2-yl)((3S,4S)-4-(3,4-dihydroisoquinolin-2(1H)-yl)-3-hydroxypiperidin-1-yl)methanone]
0.9 nM | 248 nM | 37 nM |  | Cc1cnc2nc(C(=O)N3CC[C@H](N4CCc5ccccc5C4)[C@@H](O)C3)cn2c1 [Example 72, [(3S,4S)-4-(3,4-dihydroisoquinolin-2(1H)-yl)-3-hydroxypiperidin-1-yl](6-methylimidazo[1,2-a]pyrimidin-2-yl)methanone]
3.1 nM | 1680 nM | 2230 nM |  | Cc1c(Br)cnc2ncc(C(=O)N3CC[C@H](N4CCc5ccccc5C4)[C@@H](O)C3)n12 [Example 76, (6-bromo-5-methylimidazo[1,2-a]pyrimidin-3-yl)[(3S,4S)-4-(3,4-dihydroisoquinolin-2(1H)-yl)-3-hydroxypiperidin-1-yl]methanone]

The remaining lines, values behind:

Structure (SMILES) | EC50 [1, 2] | EC50 [1, 3] | EC50 (PRMT5) | EC50 [1, 4]
CC(=O)N1CCC(Nc2nccc(C(=O)N3CC[C@H](N4CCc5ccccc5C4)[C@@H](O)C3)c2F)CC1 [Example 18, 1-(4-((4-((3S,4S)-4-(3,4-dihydroisoquinolin-2(1H)-yl)-3-hydroxypiperidine-l-carbonyl)-3-fluoropyridin-2-yl)amino)piperidin-1-yl)ethan-1-one] | ~3 nM | 6760 nM | 54 nM | 
O=C(c1ccnc(C(F)F)c1)N1CC[C@H](N2CCc3ccccc3C2)[C@@H](O)C1 [Example 52, (2-(difluoromethyl)pyridin-4-yl)((3S,4S)-4-(3,4-dihydroisoquinolin-2(1H)-yl)-3-hydroxypiperidin-1-yl)methanone] |  |  | > 10000 nM | 580 nM
Cn1nccc1-c1cnc2nc(C(=O)N3CC[C@H](N4CCc5ccccc5C4)[C@@H](O)C3)cn2c1 [Example 57, [(3S,4S)-4-(3,4-dihydroisoquinolin-2(1H)-yl)-3-hydroxypiperidin-1-yl][6-(1-methyl-1H-pyrazol-5-yl)imidazo[1,2-a]pyrimidin-2-yl]methanone] |  |  | 8.7 nM | 1.1 nM
O=C(c1ccc2c(O)c(C3CC3)cnc2c1)N1CC[C@H](N2CCc3ccccc3C2)[C@@H](O)C1 [Example 63, (3-cyclopropyl-4-hydroxyquinolin-7-yl)((3S,4S)-4-(3,4-dihydroisoquinolin-2(1H)-yl)-3-hydroxypiperidin-1-yl)methanone] | 0.7 nM | 3310 nM | 140 nM | 
CCN1CCNc2cc(C(=O)N3CC[C@H](N4CCc5ccccc5C4)[C@@H](O)C3)ccc2C1=O [Example 64, 8-((3S,4S)-4-(3,4-dihydroisoquinolin-2(1H)-yl)-3-hydroxypiperidine-1-carbonyl)-4-ethyl-1,2,3,4-tetrahydro-5H-benzo[e][1,4]diazepin-5-one] | 1.9 nM | 1660 nM | 45 nM | 
O=C(c1ccc2c(c1)NCCN(C1CCOC1)C2=O)N1CC[C@H](N2CCc3ccccc3C2)[C@@H](O)C1 (stereo partly drawn) [Example 65, 8-((3S,4S)-4-(3,4-dihydroisoquinolin-2(1H)-yl)-3-hydroxypiperidine-1-carbonyl)-4-(tetrahydrofuran-3-yl)-1,2,3,4-tetrahydro-5H-benzo[e][1,4]diazepin-5-one] |  |  | 9.6 nM | 3.5 nM
Cc1c(Br)cnc2nc(C(=O)N3CC[C@H](N4CCc5ccccc5C4)[C@@H](O)C3)cn12 [Example 66, (6-bromo-5-methylimidazo[1,2-a]pyrimidin-2-yl)((3S,4S)-4-(3,4-dihydroisoquinolin-2(1H)-yl)-3-hydroxypiperidin-1-yl)methanone] | 5.2 nM | 861 nM | 1810 nM | 
O=C(c1cn2cc(Br)cnc2n1)N1CC[C@H](N2CCc3ccccc3C2)[C@@H](O)C1 [Example 71, (6-bromoimidazo[1,2-a]pyrimidin-2-yl)[(3S,4S)-4-(3,4-dihydroisoquinolin-2(1H)-yl)-3-hydroxypiperidin-1-yl]methanone] |  |  | 10 nM | 1.1 nM
Cc1nc2ncc(C(=O)N3CC[C@H](N4CCc5ccccc5C4)[C@@H](O)C3)n2cc1Br [Example 75, (6-bromo-7-methylimidazo[1,2-a]pyrimidin-3-yl)[(3S,4S)-4-(3,4-dihydroisoquinolin-2(1H)-yl)-3-hydroxypiperidin-1-yl]methanone] | 41 nM | 1550 nM | 647 nM | 

Reference: patent US12595248B2, “PRMT5 inhibitors” (Merck Sharp & Dohme LLC, priority 2019, dated 2026)
